Source: publication PMC7700809 (Molecular Biomedicine, 2020)

Legend:
in vivo = details: male, mouse, lung, po
[1] = In vivo plasma pharmacokinetics in beagle dogs; details: Dog; for MRT last: read-out: MRT0-t; for MRT inf: read-out: MRT0-∞
Method: (§1) After dosage, blood samples were collected into heparinized tubes at 2, 5, 15, 30, 60, 120, 240, 360, 540, and 720 min for the i.v. group, and at 5, 15, 30, 60, 90, 120, 240, 360, 540, 720 and 1440 min for the i.g. group. Plasma (100 μL) was isolated from the blood sample by centrifuging at 4 °C and 6000 rpm for 3 min and then stored at − 80 °C until analysis. An aliquot of 100 μL of each plasma sample was mixed with 20 μL of internal standard working solution (200 ng/mL of caffeine). Methanol (400 μL) was then added for precipitation. After vortexing for 5 min and centrifuging at 14000 rpm for 10 min, 5 μL of the supernatant was injected for LC-MS/MS analysis.
(§2) The PK parameters were analyzed through the noncompartment model using WinNonlin 6.1 software (Pharsight Corporation, Mountain View, USA), including half-life (T1/2), the peak of the plasma concentration (Cmax), the time to peak of the plasma concentration (Tmax), the area under the plasma concentration-time curve during the period of observation (AUC0-t), the area under the plasma concentration-time curve from zero to infinity (AUC0-∞), clearance (CL), apparent volume of distribution (Vd), and the mean residence time.

[2] = In vivo plasma pharmacokinetics in rats; design: species or system Sprague-Dawley rats; details: Rat; for MRT last: read-out: MRT0-t; for MRT inf: read-out: MRT0-∞
Method: as §1, §2

[3] = Sprague-Dawley, iv, I.V. 1 mg/kg
[4] = Sprague-Dawley, po, P.O. 10 mg/kg

## CC[C@H]1CN2CCc3cc(OC)c(OC)cc3[C@@H]2C[C@@H]1C[C@H]1NCCc2cc(OC)c(OC)cc21 [Emetine]
In vivo; 1 mg/kg
  concentration at 12 h: 1.8 µM
  concentration at 72 h: 0.23 µM
In vivo; 1 mg/kg/day
  concentration at 1 h: 5 to 6 µM
  concentration at 72 h: 2.17 µM
[1]; I.V. 1 mg/kg
  AUMC0-t: 1331 ± 695 hr*hr.*ng/mL
  AUMC0-∞: 1626 ± 679 hr*hr.*ng/mL
[1]; P.O. 5 mg/kg
  AUMC0-t: 12,464 ± 9313 hr*hr.*ng/mL
  AUMC0-∞: 19,162 ± 13,435 hr*hr.*ng/mL
  Cl: 4.377 ± 3.748 L/h/kg
  Vz: 51,033 ± 45,021 mL/kg
[1]; beagle, iv, I.V. 1 mg/kg
  AUC(0-inf): 0.468 ± 0.298 µg·h/mL
  AUC(0-t): 0.449 ± 0.298 µg·h/mL
  C0: 0.351 ± 0.044 µg/mL
  Cmax: 0.26 ± 0.0667 µg/mL
  Tmax: 0.03 h
  clearance: 2.75 L/h/kg
  half-life: 2.45 ± 0.91 h
  MRT last: 3.2 ± 0.78 h
  MRT inf: 3.82 ± 0.86 h
[1]; beagle, iv, I.V. 1 mg/kg, read-out: Vz
  Vd: 9.55 ± 5.26 L/kg
[1]; beagle, po, P.O. 5 mg/kg
  AUC(0-inf): 1.74 ± 1.08 µg·h/mL
  AUC(0-t): 1.55 ± 0.964 µg·h/mL
  Cmax: 0.245 ± 0.164 µg/mL
  Tmax: 0.25 h
  half-life: 7.99 ± 0.35 h
  MRT last: 7.63 ± 1.32 h
  MRT inf: 10.7 ± 1.21 h
[1]; beagle, po, P.O. 5 mg/kg vs I.V. 1 mg/kg, read-out: F (oral bioavailability)
  bioavailability: 74.2 ± 46.2%
[2]; I.V. 1 mg/kg
  AUMC0-t: 131 ± 18 hr*hr.*ng/mL
  AUMC0-∞: 320 ± 141 hr*hr.*ng/mL
[2]; P.O. 10 mg/kg
  AUMC0-t: 1989 ± 15 hr*hr.*ng/mL
  AUMC0-∞: 3676 ± 1871 hr*hr.*ng/mL
  Cl: 45,918 ± 5515 mL/hr./kg
[2]; [3]
  AUC(0-inf): 0.0398 ± 0.0113 µg·h/mL
  AUC(0-t): 0.0298 ± 0.0061 µg·h/mL
  C0: 0.0335 ± 0.0024 µg/mL
  Cmax: 0.0269 ± 0.0048 µg/mL
  Tmax: 0.03 h
  clearance: 26.7 L/h/kg
  half-life: 4.46 ± 1.18 h
  MRT last: 4.41 ± 0.31 h
  MRT inf: 7.76 ± 1.81 h
[2]; Sprague-Dawley, iv, I.V. 1 mg/kg, read-out: Vz
  Vd: 163 L/kg
[2]; [4]
  AUC(0-inf): 0.22 ± 0.028 µg·h/mL
  AUC(0-t): 0.172 ± 0.018 µg·h/mL
  Cmax: 0.0122 ± 0.0033 µg/mL
  Tmax: 9 h
  half-life: 5.16 ± 4.16 h
  MRT last: 11.6 ± 1.33 h
  MRT inf: 16.2 ± 6 h
[2]; Sprague-Dawley, po, P.O. 10 mg/kg vs I.V. 1 mg/kg, read-out: F (oral bioavailability)
  bioavailability: 55.3 ± 7.1%
